Earlier results as cited in patent US20070141182A1, “Combination of multiple nonteroidal antiinflammatory drugs and muscle relaxants for local treatment of musculoskeletal pain” (priority 2005, published 2007).
Blank lines part the entries; values can stand above or below the compound they belong to.

How the values were obtained:
[1] = system: COX-1 and COX-2
[2] = compared with more traditional NSAIDs
[3] = for patient ratings of efficacy versus placebo: topical commercial forms
[4] = system: prostaglandins
[5] = topical gel, 6 patients
[6] = 2.5% gel daily, 10 healthy subjects
[7] = dissolved in lecithin microemulsion gel
[8] = 75 mg/ml in the donor gel, human skin

Compound: CS(=O)(=O)c1ccc(C2=C(c3ccccc3)C(=O)OC2)cc1 [rofecoxib]
COX-1 / COX-2 isoform selectivity of inhibition [1]: highly selective and potent inhibitors of COX-2

Compound: CCc1cccc2c3c([nH]c12)C(CC)(CC(=O)O)OCC3 (centres unmarked) [etodolac]
incidence of gastric lesions [2]: lower incidence of gastric lesions | COX-1 / COX-2 isoform selectivity of inhibition [1]: more selectively inhibit COX-2

Compound: COc1ccc2cc(CCC(C)=O)ccc2c1 [Nabumetone]
incidence of gastric lesions [2]: lower incidence of gastric lesions | COX-1 / COX-2 isoform selectivity of inhibition [1]: more selectively inhibit COX-2

Compound: CC(C)Cc1ccc(C(C)C(=O)O)cc1 (centres unmarked) [ibuprofen]
patient ratings of efficacy versus placebo [3]: superior efficacy | COX-1 / COX-2 isoform selectivity of inhibition [1]: inhibit both COX-1 and COX-2 equally

Compound: CN1C(C(=O)Nc2ccccn2)=C(O)c2ccccc2S1(=O)=O [Piroxicam, piroxicam]
patient ratings of efficacy versus placebo [3]: superior efficacy | COX-1 / COX-2 isoform selectivity of inhibition [1]: preferentially inhibit COX-1

Compound: magnesium choline trisalicylate
inhibition of prostaglandins [4]: only weakly inhibit prostaglandins

Compound: CC(=O)Oc1ccccc1C(=O)O [ASA, acetylsalicylic acid]
decrease in pain (VAS) (oral ASA 500 mg): 15.4% | patients with a poor response (oral administration): 79%

Compound: Cc1ccc(Cl)c(Nc2ccccc2C(=O)O)c1Cl [meclofenamate]
COX-1 / COX-2 isoform selectivity of inhibition [1]: inhibit both COX-1 and COX-2 equally

ketoprofen concentration in capsular sample [5]: 2.35 µg/g | ketoprofen concentration in intra-articular adipose tissue [5]: 4.7 µg/g | ketoprofen concentration in synovial fluid [5]: 1.4 µg/g | plasma concentrations as share of the daily dose applied [6]: 2.6%
Compound: CC(C(=O)O)c1cccc(C(=O)c2ccccc2)c1 (centres unmarked) [ketoprofen]
patient ratings of efficacy versus placebo [3]: superior efficacy

Compound: CC(C(=O)O)c1ccc(-c2ccccc2)c(F)c1 (centres unmarked) [Flurbiprofen, flurbiprofen]
COX-1 / COX-2 isoform selectivity of inhibition [1]: inhibit both COX-1 and COX-2 equally

Compound: COc1ccc2c(c1)c(CC(=O)O)c(C)n2C(=O)c1ccc(Cl)cc1 [indomethacin]
efficacy of topical versus oral administration ([3]; human, in vivo, po): as effective as therapeutic doses of oral indomethacin | patient ratings of efficacy versus placebo [3]: superior efficacy | steady-state flux [7]: about 1 μg h^−1 cm^−2 | COX-1 / COX-2 isoform selectivity of inhibition [1]: preferentially inhibit COX-1

flux through the skin [8]: 47 μg.h^−1 cm^−2
Compound: CC(C)(C)NCC(O)c1cc(Br)no1 (centres unmarked) [broxaterol]

Compound: O=C(Oc1ccccc1C(=O)O)c1ccccc1O [salsalate]
inhibition of prostaglandins [4]: only weakly inhibit prostaglandins

steady-state flux [7]: about 1 μg h^−1 cm^−2
Compound: O=C(O)Cc1ccccc1Nc1c(Cl)cccc1Cl [diclofenac]
